Measured values reported in patent US10945981B2, “Methods for treating familial adenomatous polyposis” (CANCER PREVENTION PHARMACEUTICALS, INC., priority 2019, dated 2021).
“Also recorded” adds a separate entry of the source.

Columns and labels:
[1] = cited from earlier work
[2] = test system: patients with Familial Adenomatous Polyposis (FAP); experiment: Randomized, double-blind phase III trial in FAP patients: safety (adverse events); conditions: for Treatment-related serious adverse events: 1 patient each
[3] = human, in vivo; cited from earlier work
[4] = test system: patients with Familial Adenomatous Polyposis (FAP); experiment: Randomized, double-blind phase III trial in FAP patients: FAP-related events (efficacy); type: in vivo, human; conditions: for Mean time to first FRE: Kaplan-Meier estimated; for Hazard ratio: combination versus the arm named
Text: Patients were stratified by anatomic site with highest polyp burden and surgical status: (a) post colectomy with rectal or ileal pouch polyposis (longest projected time to first FRE); (b) with duodenal polyposis (intermediate projected time to first FRE); and (c) pre-colectomy (shortest projected time to first FRE) prior to randomization to minimize treatment imbalance.
A stratified randomization procedure was used with stratification based on FAP-related time-to-first-event prognosis (see FIG. 1). The event prognosis groups were represented by 1) best (i.e., longest projected time to first FAP-related event)—rectal/pouch polyposis (Post-colectomy (≥3 years S/P IRA or IPAA with >10 polyps; any polyps >5 mm excised at baseline)), 2) intermediate—duodenal polyposis (Spigelman Stage 3 or 4 or Spigelman Stage 3 or 4 down-staged to Spigelman 1 or 2 within the past 6 months), and 3) worst—pre-colectomy. If a subject has two or more of these disease sites, the most severe prognosis stratum was assigned for randomization (e.g. worst>intermediate>best). Since an individual may have more than one disease site involved, the trial assessed time to any defined FAP-related event in the subject as a whole. In order to minimize potential treatment arm imbalance a centralized randomization process was used to balance among treatment groups within prognostic strata.
Lower GI Endoscopy: Patients were evaluated via colonoscopy, flexible or rigid procto-sigmoidoscopy during the screening phase. Biopsies, ablations, and snare excisions at baseline were performed per the clinician's standard of care. If considered eligible based on inclusion criteria, a grossly normal mucosa biopsy was obtained for baseline polyamine measurement. Still and video documentation of the colon (vide infra) or the residual rectum or entire pouch was also obtained for archiving. Polyp size was determined by visual comparison with biopsy forceps that can measure 5.0-5.5 mm in the fully open position. All randomized patients with an intact colon or rectum/pouch had baseline and on-study lower GI endoscopy procedures as part of this trial.
Upper GI Endoscopy: The duodenum was evaluated by forward-viewing and/or side-viewing gastroscopes (with still and video documentation with closed and open biopsy forceps near mucosa). All randomized patients with a duodenum had baseline and on-study UGI endoscopy as part of this trial. Subjects stratified to the duodenal group must have duodenal biopsies of all polyps 1 cm or larger to determine HGD and histology required for determining Stage 3 or 4 Spigelman status.
FAP-related primary events by disease site were as follows: • 1. Pre-operative, intact colon: Disease progression indicating need for colectomy with IRA or total procto-colectomy • 2. Retained rectum or pouch events include one or more of the following: • a) Excisional intervention by endoscopic snare or trans-anal excision to remove any polyp ≥10 mm in size (per pathology report) and/or pathologic evidence of high grade dysplasia. • b) Disease progression indicating need for proctectomy or pouch resection • 3. Duodenal disease includes the following: • a) Progression in Spigelman Stage to more advanced stage (Stage 2, 3 or 4) • b) Disease progression indicating need for excisional intervention (sub-mucosal resection, trans-duodenal excision, ampullectomy, duodenectomy, Whipple procedure) • c) Development of cancer
At six month intervals (+/−two weeks), subjects underwent repeat upper and lower endoscopy. […] Video recordings of all procedures and qualitative assessments were compared to the exam 6 months prior.

patients with FAP = conditions: cited from earlier work
[5] = in vivo; cited from earlier work
[6] = disease site colon, number of subjects
[7] = disease site duodenum, number of subjects
[8] = disease site rectum and pouch, number of subjects
[9] = post-colectomy, rectal/ileal pouch stratum

CC1=C(CC(=O)O)c2cc(F)ccc2/C1=C\c1ccc([S+](C)[O-])cc1 (stereo not shown) [Sulindac, (Z)-5-fluoro-2-methyl-1-((4-(methylsulfinyl)phenyl)methylene)-1H-indene-3-acetic acid]
Time to peak plasma levels ([1]; oral, fasting patients): about 2 hours | Drug absorbed after oral administration ([1]; oral): about 90% | Discontinuations due to AEs, number of patients [2]: 6 patients | Discontinuations due to AEs, percent of patients [2]: 10.3% | TRAE reported by % of patients [2]: 73.7% | Treatment-related hearing adverse events: Hearing loss N [2]: 2 | Treatment-related hearing adverse events: Tinnitus N [2]: 5 | Treatment-related serious adverse events [2]: Severe Nausea; also recorded: Deep Vein Thrombosis; also recorded: Worsening of Depression; also recorded: Spontaneous Abortion | Treatment-related serious adverse events ([2]; listed as sulindac): severe nausea, deep vein thrombosis, worsening of depression, and spontaneous abortion | Death ([2]; safety population): 0 n (%) | Number of patients discontinuing due to a TRAE ([2]; safety population): 5 (8.8) n (%) | Number of patients reporting TEAEs ([2]; safety population): 50 (87.7) n (%) | Number of patients reporting TEAEs ≥ Grade 3 ([2]; safety population): 12 (21.1) n (%) | Number of patients reporting TRAE: Abdominal distension ([2]; safety population): 3 (5.3) n (%) | Number of patients reporting TRAE: Abdominal pain ([2]; safety population): 4 (7.0) n (%) | Number of patients reporting TRAE: Alopecia ([2]; safety population): 3 (5.3) n (%) | Number of patients reporting TRAE: Decreased appetite ([2]; safety population): 4 (7.0) n (%) | Number of patients reporting TRAE: Depression ([2]; safety population): 3 (5.3) n (%) | Number of patients reporting TRAE: Diarrhea ([2]; safety population): 3 (5.3) n (%) | Number of patients reporting TRAE: Dizziness ([2]; safety population): 2 (3.5) n (%) | Number of patients reporting TRAE: Dyspepsia ([2]; safety population): 4 (7.0) n (%) | Number of patients reporting TRAE: Fatigue ([2]; safety population): 4 (7.0) n (%) | Number of patients reporting TRAE: Flatulence ([2]; safety population): 3 (5.3) n (%) | Number of patients reporting TRAE: Frequent bowel movements ([2]; safety population): 1 (1.8) n (%) | Number of patients reporting TRAE: Gastritis erosive ([2]; safety population): 0 n (%) | Number of patients reporting TRAE: Headache ([2]; safety population): 7 (12.3) n (%) | Number of patients reporting TRAE: Hematochezia ([2]; safety population): 2 (3.5) n (%) | Number of patients reporting TRAE: Nausea ([2]; safety population): 9 (15.8) n (%) | Number of patients reporting TRAE: Pruritus ([2]; safety population): 4 (7.0) n (%) | Number of patients reporting TRAE: Rash ([2]; safety population): 0 n (%) | Number of patients reporting TRAE: Rectal hemorrhage ([2]; safety population): 4 (7.0) n (%) | Number of patients reporting TRAE: Thrombocytopenia ([2]; safety population): 3 (5.3) n (%) | Number of patients reporting TRAE: Tinnitus ([2]; safety population): 5 (8.8) n (%) | Number of patients reporting TRAE: Upper abdominal pain ([2]; safety population): 1 (1.8) n (%) | Number of patients reporting TRAE: Vomiting ([2]; safety population): 4 (7.0) n (%) | Number of patients reporting TRAEs ([2]; safety population): 42 (73.7) n (%) | Number of patients reporting TRSAEs ([2]; safety population): 4 (7.0) n (%) | Mild gastrointestinal effects, percent of patients [3]: ~20% | Skin rash and pruritus, percent of patients [3]: 5% | Kaplan-Meier estimated mean time to first FRE ([4]; ITT population): 23.6 months | Event-free rate ([4]; ITT population, cumulative): 63.1% | FREs occurred, percent of patients ([4]; ITT population, cumulative): 37.9% | Surgical FAP-related events, Colon: Event-free proportion ([4]; disease site colon): 69.2% | Surgical FAP-related events, Colon: Colectomy [4, 6]: 2 | Surgical FAP-related events, Colon: Disease progression [4, 6]: 4 | Surgical FAP-related events, Duodenum: Event-free proportion ([4]; disease site duodenum): 70.2% | Surgical FAP-related events, Duodenum: Disease progression [4, 7]: 10 | Surgical FAP-related events, Duodenum: Excisional intervention [4, 7]: 6 | Surgical FAP-related events, Duodenum: Spigelman stage progression [4, 7]: 7 | Surgical FAP-related events, Rectum and Pouch: Event-free proportion ([4]; disease site rectum and pouch): 95% | Surgical FAP-related events, Rectum and Pouch: Disease progression [4, 8]: 2 | Surgical FAP-related events, Rectum and Pouch: Proctectomy/pouch resection [4, 8]: 1 | FRE type: Duodenal excision ([4]; duodenal polyposis stratum): 6 | FRE type: Duodenal excision and Spigelman stage progression ([4]; duodenal polyposis stratum): 2 | FRE type: Duodenal excision and ≥ 10 mm polyp removed in rectum/pouch ([4]; duodenal polyposis stratum): 1 | FRE type: Proctocolectomy and ≥ 10 mm polyp removed in rectum/pouch ([4]; duodenal polyposis stratum): 1 | FRE type: Spigelman stage progression ([4]; duodenal polyposis stratum): 3 | FRE type: ≥10 mm polyp removed in rectum/pouch ([4]; duodenal polyposis stratum): 1 | Patients with FRE, % ([4]; duodenal polyposis stratum): (41.2) % | Total FRE ([4]; duodenal polyposis stratum): 14 | Mean time to first FRE ([4]; duodenal polyposis stratum): 21.1 months | Risk reduction versus combination ([4]; duodenal polyposis stratum, combination relative to the arm named): 29% | Hazard ratio ([4]; duodenal polyposis stratum): 0.716 | Patients with FRE, % ([4]; duodenal polyposis stratum, listed as sulindac): 41.2% | Progression of lower gastrointestinal polyposis: surgeries ([4]; human, in vivo): 3 | Patients with duodenal polyposis progression who underwent duodenal excisional procedures ([4]; number of patients): 6 | FRE type: Pouch resection [4, 9]: 1 | FRE type: ≥10 mm polyp removed in rectum/pouch [4, 9]: 1 | Patients with FRE, % [4, 9]: (18.2) % | Total FRE [4, 9]: 2 | Mean time to first FRE [4, 9]: 27.5 months | Risk reduction versus combination ([4]; post-colectomy, rectal/ileal pouch stratum, combination relative to the arm named): 16% | Hazard ratio [4, 9]: 0.841 | Patients with FRE, % ([4]; post-colectomy, rectal/ileal pouch stratum, listed as sulindac): 18.2% | FRE type: Colectomy ([4]; pre-colectomy stratum): 4 | FRE type: Duodenal excision and Spigelman stage progression ([4]; pre-colectomy stratum): 1 | FRE type: Spigelman stage progression ([4]; pre-colectomy stratum): 1 | Patients with FRE, % ([4]; pre-colectomy stratum): (46.2) % | Total FRE ([4]; pre-colectomy stratum): 6 | Mean time to first FRE ([4]; pre-colectomy stratum): 25.2 months | Hazard ratio ([4]; pre-colectomy stratum): 0.299 | Patients with FRE, % ([4]; pre-colectomy stratum, listed as sulindac): 46.2% | Risk reduction versus combination ([4]; pre-colectomy stratum, risk reduction for FRE of the combination relative to the arm named): 70% | Event Rate of FAP-related Surgery Events in Lower GI ([4]; subjects with lower GI anatomy): 6/58 (10%) | Lower GI surgery events: Need colectomy ([4]; subjects with lower GI anatomy): 4 | Lower GI surgery events: Need pouch resection ([4]; subjects with lower GI anatomy): 1 | Lower GI surgery events: Need proctectomy ([4]; subjects with lower GI anatomy): 1 | Lower GI surgery events: Total Surgical Events ([4]; subjects with lower GI anatomy): 6 | Progression of lower gastrointestinal polyposis: polypectomies ([4]; ≥10 mm in size and/or high grade dysplasia): 4

Cc1ccc(-c2cc(C(F)(F)F)nn2-c2ccc(S(N)(=O)=O)cc2)cc1 [celecoxib, 4-[5-(4-Methylphenyl)-3-(trifluoromethyl)pyrazol-1-yl]benzenesulfonamide]
Reduction of measures of global tumor burden from baseline (patients with FAP): 30% | Reduction of the number of colonic adenomas (patients with FAP): 1% | Increase in rates of heart and blood vessel disease [5]: 30% | Risk of gastrointestinal side effects [5]: greater than 80%

CSc1ccc(/C=C2/C(C)=C(CC(=O)O)c3cc(F)ccc32)cc1 [sulfide metabolite]
Mean half-life ([1]; in vivo): 16.4 h
